# Experimental data: patent US20240216410A1, “METHODS AND COMPOSITIONS FOR TREATING CANCER THERAPY-INDUCED NEUTROPENIC FEVER AND/OR GVHD” (BOARD OF REGENTS, THE UNIVERSITY OF TEXAS SYSTEM, priority 2021, published 2024)
# Key:
# intestinal microbiota = assay: Murine GVHD model: fecal microbiome composition (16S rRNA sequencing) and bacterial density (qPCR); format: in vivo, mice; settings: day 20; meropenem-treated mice with or without oral xylose 0.5% days 13 to 20
# Experimental: Effects of meropenem treatment on the composition of the intestinal microbiota of allo-HSCT mice were also examined (FIG. 15F).
# Sequencing of 16S rRNA gene amplicons. Fecal samples from patients and mice were weighed before DNA isolation. In brief, genomic DNA was isolated using the QIAAMP® DNA mini kit (51306, QIAGEN®) according to the manufacturer's protocol that was modified to include an intensive bead-beating lysis step. The V4 region of 16S rRNA gene was amplified by PCR from 100 ng of each of extracted and purified genomic DNA using 515 forward and 806 reverse primer pairs (59). The quality and quantity of the barcoded amplicons were assessed on an Agilent 4200 TapeStation system (Agilent) and QUBIT™ Fluorometer (THERMO FISHER […]™), and libraries were prepared after pooling at equimolar ratios. The final libraries were purified using […]® gel extraction kit (28706X4, QIAGEN®) and sequenced with a 2×250 base pair paired-end protocol on the […]® MISEQ™ platform.
# Microbiome data analysis. Sequencing data from paired-end reads were de-multiplexed using QIIME 2 (60). Merging of paired-end reads, dereplicating, and length filtering was performed using VSEARCH 2.17.1 (61). Following de-noising and chimera calling using the unoise3 command (62), unique sequences were taxonomically classified with mothur (63) using the Silva database (64) version 138. Weighted UniFrac distances (65) were determined using QIIME 2, visualized using principal coordinate analysis, and evaluated for statistical significance using permutational multivariate analysis of variance (PERMANOVA) testing. For differential abundance analysis, abundances of sequences belonging to taxonomical groups were included for analysis using the Mann-Whitney U test and adjusted for multiple comparisons using the method of Benjamini and Hochberg. Paired samples were analyzed using the Wilcoxon signed rank test with adjustment for multiple comparisons.
# Quantification of fecal bacterial density. Genomic DNA was isolated from stool as described above. qPCR was performed as previously described (66). In brief, 16S rRNA gene sequences were amplified from total fecal DNA using the primers 926F (5′-[…]-3′, where K is a G or a T; SEQ ID NO:2) and 1062R (5′-[…]-3′, where R is an A or a G; SEQ ID NO:3). Real-time PCR were carried out in 96-well optical plates on QUANTSTUDIO™ Flex 6 RT PCR (APPLIED BIOSYSTEMS™) and KAPA SYBR® FAST Master Mix (Roche). The PCR conditions included one initial denaturing step of 10 min at 95° C. and 40 cycles of 95° C. for 20 sec and 60 °C for 1 min. Melting-curve analysis was performed after amplification. To determined bacterial density, a plasmid with a 16S rRNA gene of a murine Blautia isolate was generated in the pCR4 backbone and used as a standard.
# [1] = test system: murine BT GH2 β-galactosidase, GH33 sialidase, GH29 α-L-fucosidase; assay: Quantitative real-time PCR of GH2, GH29 and GH33 BT loci; format: cell-based, Bacteroides thetaiotaomicron; settings: BT cultured with or without monosaccharides
# Excerpt: (§1) To examine the effects of the presence of monosaccharides on mucin utilization by BT, BT was cultivated in bacterial media containing porcine gastric mucin, a panel of monosaccharides was subsequently added, including arabinose and xylose, and levels of remaining mucin were quantified using a colorimetric assay (FIG. 18C). In the absence of additional monosaccharides, BT readily metabolized porcine gastric mucin.
# Quantitative real-time PCR analysis of BT loci. Total RNA was isolated from in vitro cultured BT as described above. The cDNA was synthesized using a High-Capacity cDNA Reverse Transcription Kit (4368814, APPLIED BIOSYSTEMS™). The mRNA levels of selected targets were quantified by qPCR using KAPA SYBR® FAST Master Mix (Roche) and specific probes (GH2, 5′-[…]-3′ (SEQ ID NO:4) for the forward primer, 5′-[…]-3′ (SEQ ID NO:5) for the reverse primer; GH29, 5′-[…]-3′ (SEQ ID NO:6) for the forward primer, 5′-[…]-3′ (SEQ ID NO:7) for the reverse primer; GH33, 5′-[…]-3′ (SEQ ID NO:8) for the forward primer, 5′-[…]-3′ (SEQ ID NO:9) for the reverse primer) and were normalized to BT specific probes (5′-[…]-3′ (SEQ ID NO:10) for the forward primer, 5′-[…]-3′ (SEQ ID NO:11) for the reverse primer) (75).
# [2] = test system: mouse and human-derived BT; assay: Growth of BT in carbohydrate-poor media with monosaccharide; format: cell-based, Bacteroides thetaiotaomicron; settings: OD600 nm up to 30 hours
# Experimental: Allo-HSCT recipient mice were treated with meropenem as in FIG. 15A and with xylose from days 13 to 20 (FIG. 18F). […] Importantly, in vitro, growth of mouse and human-derived BT in carbohydrate-poor media was augmented by xylose (FIG. 23B). […] Bacteria were cultured up to 48 hours at a starting concentration of 1×10^6 bacteria/ml in BYEM10 broth (pH 7.2) with and without 5 mg/ml of porcine gastric mucin ([…], Sigma-Aldrich). Optical densities (OD600 nm) of bacterial cultures were measured with a BioTek EPOCHTM 2 plate reader.
# BT (MDA-JAX BT001) = assay: Mucin degradation assay of BT in porcine gastric mucin medium with monosaccharides; format: cell-based, Bacteroides thetaiotaomicron; settings: monosaccharide added at 15 hours, further 3 hours
# Experimental: as §1
# Bacteria were cultured up to 48 hours at a starting concentration of 1×10^6 bacteria/ml in BYEM10 broth (pH 7.2) with and without 5 mg/ml of porcine gastric mucin (M1778, Sigma-Aldrich). Optical densities (OD600 nm) of bacterial cultures were measured with a BioTek EPOCH™ 2 plate reader.
# Mucin degradation assay. Levels of mucin glycans in culture supernatants were determined by a PAS-based colorimetric assay as previously described (67) with minor modifications. Briefly, culture supernatants were centrifuged at 20,000 g, 4° C. for 10 minutes and collected. To perform mucin precipitation, 500 μL of culture supernatants were mixed with 1 mL of molecular grade ethanol and incubated at −30° C. overnight. Culture supernatants were centrifuged at 20,000 g, 4° C. for 10 minutes. Mucin-containing pellets were washed with 1 mL of molecular grade ethanol twice and resuspended in 500 μL of PBS. […] Absorbance was measured at 550 nm using a BioTek SYNERGY™ HTX plate reader.
# colonic mucus layer = assay: Murine GVHD model: colonic mucus layer thickness (PAS staining); format: in vivo, mice; settings: day 20; xylose days 13 to 20 vs GVHD mice receiving meropenem alone
# Experimental: Next, assessed was the impact of meropenem treatment on the dense colonic mucus layer of mice with GVHD.
# Allo-HSCT recipient mice were treated with meropenem as in FIG. 15A and with xylose from days 13 to 20 (FIG. 18F). […] Importantly, in vitro, growth of mouse and human-derived BT in carbohydrate-poor media was augmented by xylose (FIG. 23B).
# Xylose administration. D-(+)-xylose (X3877, SIGMA-ALDRICH®) was dissolved in phosphate buffer pH 8.0 with meropenem or in water without meropenem and given at a concentration of 0.5% from days 13 to 20 after allo-HSCT.
# Histological and immunohistochemistry analysis. […] Pathology scores were quantified by a blinded pathologist. […] Sections were imaged using an APERIO® AT2.
smiles,measurement,setting,value
"O=C[C@H](O)[C@@H](O)[C@H](O)CO [xylose, D-(+)-xylose]",relative abundances of BT,intestinal microbiota,not significantly different
same,expression of GH2 β-galactosidase by murine BT,[1],not significantly impacted
same,expression of GH33 sialidase and GH29 α-L-fucosidase by murine BT,[1],suppressed
same,growth of BT in carbohydrate-poor media,[2],augmented
same,mucin utilization by BT,BT (MDA-JAX BT001),significantly suppressed
same,colonic mucus thickness,colonic mucus layer,prevented thinning of the colonic mucus thickness
